We go through five compounds from publication PMC6995600, “Effects of Synergistic Inhibition on α-glucosidase by Phytoalexins in Soybeans” (Biomolecules, 2019).

The target of experiment [1] is T1, α-Glucosidase (from baker’s yeast) (Saccharomyces cerevisiae, UniProt P53341).
T1 construct: purchased Sigma-Aldrich #63231-63-0
Nature of the experiment: biochemical. The method, then:
Synergistic effects on α-glucosidase inhibition were measured using the same methods as above. […] We calculated the IC50 values of each polyphenol and the combinations, and we used the statistical differences of these values to assess synergistic effects.

Experiment [2] deals with T1, α-Glucosidase (from baker’s yeast). The experiment can be described thus: biochemical. On the procedure:
The activity of α-glucosidase was measured as described previously, with slight modifications. In brief, sodium phosphate buffer (0.1 M) was adjusted to 0.1 N HCl to pH 7.0 with a pH meter (Thermo Fisher Scientific Inc., Waltham, MA, USA). Solutions of pNPG (10 mM) and α-glucosidase (1 U/mL) were solubilized in 0.1 M sodium phosphate buffer (pH 7.0). All reagents were prepared shortly before use and warmed to 37 °C in a water bath (Il-shin Biobase, Pocheon, Korea). […] The substrate, pNPG (N1377, Sigma), was added into each well to a final concentration of 1 mM in a total volume of 200 μL, and 100 μL of α-glucosidase (1 U/mL) per well was then added. […] The absorbance values were plotted against time, and the rate (velocity) of product generation (α-glucosidase activity) was calculated from the linear range of the graph.
The source holds these as a separate data set.

Experiment [3] shares this target. Nature of the experiment: Enzyme kinetics for α-glucosidase (Michaelis–Menten, Lineweaver–Burk, Dixon plot). The note with it: for Mode of Inhibition: Lineweaver–Burk plots. The class given is biochemical. The method, then: The enzyme reaction was performed according to the above reaction conditions with polyphenols at various concentrations (1–30 μM). pNPG (1 mM) was added with polyphenols in 96-well plates, and α-glucosidase (1 U/mL) was added to initiate the enzyme reaction. The absorbances for each concentration of pNPG were then obtained by spectrophotometry (Victor3, PerkinElmer, Waltham, MA, USA). The inhibition modes of the polyphenols were determined using Michaelis–Menten and Lineweaver–Burk equations [23, 24]. The inhibition constant Ki is an indication of the potency of an inhibitor and equals the concentration required to produce half-maximal inhibition and can be determined by a Dixon plot. […] The αKi value is the inhibitor constant when the inhibitor (I) occupies the enzyme–substrate (ES) complex.
To define the mode of inhibition of the polyphenols, enzyme kinetics were performed with designated concentrations of pNPG. The maximum velocity (Vmax) for α-glucosidase was calculated from the nonlinear regression curve with five different concentrations of substrate (Figure 2). To determine the inhibition modes, Lineweaver–Burk plots were constructed for each of the inhibition modes, and the most suitable mode was selected using SigmaPlot 10.0 software.
Meanwhile, the inhibitor constant Ki indicates the potency of an inhibitor and is expressed as the concentration required to produce half-maximal inhibition and is determined by a Dixon plot. The initial slope v was determined for each concentration of each polyphenol. The reciprocal velocity (1/v) versus the […] (for 0.25, 0.5, 1, and 2 mM pNPG) was plotted. A single regression line for each concentration of the substrate was obtained, and Ki was calculated from the intersection of the four lines.

In the next experiment the test system is α-glucosidase. On the set-up: method as in PMID 24083955. The note with it: 2 μM; cited from earlier work.
The mark [4] stands for this setting: Substrate PNPG 0.125 mM, read-out: IC50.
Where [5] appears, read: Substrate PNPG 0.25 mM, read-out: IC50.
The mark [6] stands for this setting: Substrate PNPG 0.5 mM, read-out: IC50.
Where [7] appears, read: Substrate PNPG 1 mM, read-out: IC50.
[8] abbreviates: pNPG 1 mM, pH 7.0, 37 °C, read-out: half-maximal inhibitory concentrations (IC50).

Read-outs that look alike come from different tables or passages of the source.

T1 sequence (P53341 whole entry): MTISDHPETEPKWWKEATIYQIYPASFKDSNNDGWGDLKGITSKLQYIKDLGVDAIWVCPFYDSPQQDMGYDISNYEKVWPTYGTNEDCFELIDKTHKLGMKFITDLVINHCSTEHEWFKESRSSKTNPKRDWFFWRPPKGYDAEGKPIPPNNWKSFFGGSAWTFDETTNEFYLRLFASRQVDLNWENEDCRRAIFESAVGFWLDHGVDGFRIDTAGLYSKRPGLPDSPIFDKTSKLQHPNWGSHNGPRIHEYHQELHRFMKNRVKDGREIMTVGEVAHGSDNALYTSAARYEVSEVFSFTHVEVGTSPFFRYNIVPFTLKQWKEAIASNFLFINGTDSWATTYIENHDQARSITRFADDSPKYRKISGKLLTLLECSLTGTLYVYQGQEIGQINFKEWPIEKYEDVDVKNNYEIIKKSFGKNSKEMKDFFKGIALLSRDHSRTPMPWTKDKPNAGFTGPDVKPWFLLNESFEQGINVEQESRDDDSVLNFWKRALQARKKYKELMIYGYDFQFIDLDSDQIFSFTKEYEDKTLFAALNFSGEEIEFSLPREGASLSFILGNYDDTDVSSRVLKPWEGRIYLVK

In the case of `O=c1cc(-c2ccc(O)c(O)c2)oc2cc(O)cc(O)c12` [Luteolin, luteolin], the IC50 in experiment [1] (setting [4]) stood at 18.6 ± 1.2 µM; in experiment [1] (setting [5]), 14.82 ± 0.01 µM; in experiment [1] (setting [6]), 15.4 ± 1.99 µM; in experiment [1] (setting [7]) it was 19.5 ± 1.59 µM; in experiment [2] (setting [8]) it was 11.9 ± 1.63 µM. Also, the Ki in experiment [3] came out at 16.8 ± 9.6 µM. In experiment [3], the “Mode of Inhibition” value is given as “Mixed”.

In the case of `O=c1c2cc(O)ccc2oc2cc(O)cc(O)c12` [1,3,7-trihydroxyxanthone], the inhibition entry in the experiment on α-glucosidase is “approximately 15%”.

Consider `O=c1c(-c2ccc(O)cc2)coc2cc(O)ccc12` [Daidzein, daidzein], for which the IC50 in experiment [1] (IC50, Substrate PNPG 0.125 mM) was found to be 59.2 ± 6.1 µM; in experiment [1] (IC50, Substrate PNPG 0.25 mM), 27.6 ± 2.93 µM; in experiment [1] (IC50, Substrate PNPG 0.5 mM) it was 23.2 ± 1.04 µM; in experiment [1] (IC50, Substrate PNPG 1 mM), 20.5 ± 1.82 µM; in experiment [2], 20.2 ± 6.17 µM. Besides, the “Mode of Inhibition” value in experiment [3] is recorded as “Uncompetitive”.

In the case of `C[C@H]1O[C@H](O[C@H]2[C@H](O)[C@@H](O)[C@@H](O[C@H]3[C@H](O)[C@@H](O)C(O)O[C@@H]3CO)O[C@@H]2CO)[C@H](O)[C@@H](O)[C@@H]1N[C@H]1C=C(CO)[C@@H](O)[C@H](O)[C@H]1O` (some centres unmarked) [Acarbose, acarbose, reference compound], in experiment [3], the “Mode of Inhibition” value is listed as “Competitive”.

In the case of `CC1(C)C=Cc2c(ccc3c2OC[C@@]2(O)c4ccc(O)cc4O[C@@H]32)O1` [Glyceollin, glyceollin], the IC50 in experiment [1] (setting [4]) was 16.6 ± 3.25 µM; in experiment [1] (setting [5]), 16.57 ± 0.15 µM; in experiment [1] (setting [6]), 19.1 ± 0.96 µM; in experiment [1] (setting [7]), 33.2 ± 3.97 µM; in experiment [2] (setting [8]) it was 13.2 ± 2.31 µM. Moreover, in experiment [3], the inhibition constant Ki was 19 ± 4.45 µM. For the same compound, the “Mode of Inhibition” value is listed as “Competitive” in experiment [3] and “competitive inhibition” in experiment [3] (listed as glyceollin).

As a reminder, the Ki is the dissociation constant of the complex between target and ligand, obtained from inhibition or displacement. Low readings indicate higher affinity, high ones lower affinity.
